{"source": "the supplement of paper PMC10307832", "test_in_all_cases": "relative viability (nuclei count vs DMSO), 5 days (fraction); higher = more cells survive", "key": {"BX 795": {"compound": "O=C(NCCCNc1nc(Nc2cccc(NC(=O)N3CCCC3)c2)ncc1I)c1cccs1 [BX 795]", "in_short": "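For viability, nuclei in each treated well were divided by nuclei in vehicle wells and the median across plates was taken. Lung cancer cell lines in 1536-well plates were pinned with five library-drug doses (not always all listed) spaced by √10, cultured 5 days without medium change, and imaged at 4× after Hoechst staining, with plates passing only at control CV below 25% and at least one doubling.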"}, "BX 795 + Foretinib": {"compound": "O=C(NCCCNc1nc(Nc2cccc(NC(=O)N3CCCC3)c2)ncc1I)c1cccs1 [BX 795] + COc1cc2c(Oc3ccc(NC(=O)C4(C(=O)Nc5ccc(F)cc5)CC4)cc3F)ccnc2cc1OCCCN1CCOCC1 [Foretinib] (partner 0.25 µM)", "in_short": "(§1)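 Lung cancer cell lines, seeded in 1536-well plates, were treated the following day by pin tool with a single drug or with five library-drug doses (not always all listed) in √10 steps on top of a fixed anchor-drug dose. Cells were fixed and nuclei stained in one step after 5 days, and nuclei were counted. Relative viability is the nuclei count for treated wells divided by that for vehicle wells, reported as medians of duplicate plates.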"}, "BX 795 + Crizotinib": {"compound": "O=C(NCCCNc1nc(Nc2cccc(NC(=O)N3CCCC3)c2)ncc1I)c1cccs1 [BX 795] + C[C@@H](Oc1cc(-c2cnn(C3CCNCC3)c2)cnc1N)c1c(Cl)ccc(F)c1Cl [Crizotinib] (partner 1 µM)", "in_short": "as §1"}, "BX 795 + Olaparib": {"compound": "O=C(NCCCNc1nc(Nc2cccc(NC(=O)N3CCCC3)c2)ncc1I)c1cccs1 [BX 795] + O=C(c1cc(Cc2n[nH]c(=O)c3ccccc23)ccc1F)N1CCN(C(=O)C2CC2)CC1 [Olaparib] (partner 8 µM)", "in_short": "as §1"}, "BX 795 + Linsitinib": {"compound": "O=C(NCCCNc1nc(Nc2cccc(NC(=O)N3CCCC3)c2)ncc1I)c1cccs1 [BX 795] + C[C@]1(O)C[C@@H](c2nc(-c3ccc4ccc(-c5ccccc5)nc4c3)c3c(N)nccn32)C1 [Linsitinib] (partner 1 µM)", "in_short": "as §1"}, "BX 795 + Pictilisib": {"compound": "O=C(NCCCNc1nc(Nc2cccc(NC(=O)N3CCCC3)c2)ncc1I)c1cccs1 [BX 795] + CS(=O)(=O)N1CCN(Cc2cc3nc(-c4cccc5[nH]ncc45)nc(N4CCOCC4)c3s2)CC1 [Pictilisib] (partner 1 µM)", "in_short": "as §1"}, "BX 795 + Bortezomib": {"compound": "O=C(NCCCNc1nc(Nc2cccc(NC(=O)N3CCCC3)c2)ncc1I)c1cccs1 [BX 795] + CC(C)C[C@H](NC(=O)[C@H](Cc1ccccc1)NC(=O)c1cnccn1)B(O)O [Bortezomib] (partner 0.002 µM)", "in_short": "as §1"}, "BX 795 + Lapatinib": {"compound": "O=C(NCCCNc1nc(Nc2cccc(NC(=O)N3CCCC3)c2)ncc1I)c1cccs1 [BX 795] + CS(=O)(=O)CCNCc1ccc(-c2ccc3ncnc(Nc4ccc(OCc5cccc(F)c5)c(Cl)c4)c3c2)o1 [Lapatinib] (partner 2 µM)", "in_short": "as §1"}, "BX 795 + Alpelisib": {"compound": "O=C(NCCCNc1nc(Nc2cccc(NC(=O)N3CCCC3)c2)ncc1I)c1cccs1 [BX 795] + Cc1nc(NC(=O)N2CCC[C@H]2C(N)=O)sc1-c1ccnc(C(C)(C)C(F)(F)F)c1 [Alpelisib] (partner 2 µM)", "in_short": "as §1"}, "BX 795 + Navitoclax": {"compound": "O=C(NCCCNc1nc(Nc2cccc(NC(=O)N3CCCC3)c2)ncc1I)c1cccs1 [BX 795] + CC1(C)CCC(c2ccc(Cl)cc2)=C(CN2CCN(c3ccc(C(=O)NS(=O)(=O)c4ccc(N[C@H](CCN5CCOCC5)CSc5ccccc5)c(S(=O)(=O)C(F)(F)F)c4)cc3)CC2)C1 [Navitoclax] (partner 0.5 µM)", "in_short": "as §1"}, "BX 795 + AZD7762": {"compound": "O=C(NCCCNc1nc(Nc2cccc(NC(=O)N3CCCC3)c2)ncc1I)c1cccs1 [BX 795] + NC(=O)Nc1cc(-c2cccc(F)c2)sc1C(=O)N[C@H]1CCCNC1 [AZD7762] (partner 0.2 µM)", "in_short": "as §1"}}}
{"cell line": "NCI-H1703", "values": [{"measurement": "relative viability", "setting": "BX 795; 0.04 µM", "value": 0.469}, {"measurement": "relative viability", "setting": "BX 795; 0.1265 µM", "value": 0.806}, {"measurement": "relative viability", "setting": "BX 795; 0.4 µM", "value": 0.236}, {"measurement": "relative viability", "setting": "BX 795; 1.265 µM", "value": 0.298}, {"measurement": "relative viability", "setting": "BX 795 + Foretinib; first compound 0.1265 µM", "value": 0.296}, {"measurement": "relative viability", "setting": "BX 795 + Foretinib; first compound 0.4 µM", "value": 0.274}, {"measurement": "relative viability", "setting": "BX 795 + Foretinib; first compound 1.265 µM", "value": 0.27}, {"measurement": "relative viability", "setting": "BX 795 + Crizotinib; first compound 0.04 µM", "value": 0.317}, {"measurement": "relative viability", "setting": "BX 795 + Crizotinib; first compound 0.1265 µM", "value": 0.453}, {"measurement": "relative viability", "setting": "BX 795 + Crizotinib; first compound 0.4 µM", "value": 0.148}, {"measurement": "relative viability", "setting": "BX 795 + Crizotinib; first compound 1.265 µM", "value": 0.179}, {"measurement": "relative viability", "setting": "BX 795 + Olaparib; first compound 0.1265 µM", "value": 0.283}, {"measurement": "relative viability", "setting": "BX 795 + Olaparib; first compound 0.4 µM", "value": 0.229}, {"measurement": "relative viability", "setting": "BX 795 + Olaparib; first compound 1.265 µM", "value": 0.152}, {"measurement": "relative viability", "setting": "BX 795 + Linsitinib; first compound 0.1265 µM", "value": 0.622}, {"measurement": "relative viability", "setting": "BX 795 + Linsitinib; first compound 0.4 µM", "value": 0.185}, {"measurement": "relative viability", "setting": "BX 795 + Linsitinib; first compound 1.265 µM", "value": 0.224}, {"measurement": "relative viability", "setting": "BX 795 + Pictilisib; first compound 0.1265 µM", "value": 0.201}, {"measurement": "relative viability", "setting": "BX 795 + Pictilisib; first compound 0.4 µM", "value": 0.222}, {"measurement": "relative viability", "setting": "BX 795 + Pictilisib; first compound 1.265 µM", "value": 0.185}, {"measurement": "relative viability", "setting": "BX 795 + Bortezomib; first compound 0.04 µM", "value": 0.272}, {"measurement": "relative viability", "setting": "BX 795 + Bortezomib; first compound 0.1265 µM", "value": 0.223}, {"measurement": "relative viability", "setting": "BX 795 + Bortezomib; first compound 0.4 µM", "value": 0.167}, {"measurement": "relative viability", "setting": "BX 795 + Bortezomib; first compound 1.265 µM", "value": 0.159}, {"measurement": "relative viability", "setting": "BX 795 + Lapatinib; first compound 0.04 µM", "value": 0.729}, {"measurement": "relative viability", "setting": "BX 795 + Lapatinib; first compound 0.1265 µM", "value": 1.11}, {"measurement": "relative viability", "setting": "BX 795 + Lapatinib; first compound 0.4 µM", "value": 0.284}, {"measurement": "relative viability", "setting": "BX 795 + Lapatinib; first compound 1.265 µM", "value": 0.243}, {"measurement": "relative viability", "setting": "BX 795 + Alpelisib; first compound 0.04 µM", "value": 0.211}, {"measurement": "relative viability", "setting": "BX 795 + Alpelisib; first compound 0.1265 µM", "value": 0.286}, {"measurement": "relative viability", "setting": "BX 795 + Alpelisib; first compound 0.4 µM", "value": 0.194}, {"measurement": "relative viability", "setting": "BX 795 + Alpelisib; first compound 1.265 µM", "value": 0.204}, {"measurement": "relative viability", "setting": "BX 795 + Navitoclax; first compound 0.04 µM", "value": 0.8}, {"measurement": "relative viability", "setting": "BX 795 + Navitoclax; first compound 0.1265 µM", "value": 1}, {"measurement": "relative viability", "setting": "BX 795 + Navitoclax; first compound 0.4 µM", "value": 0.22}, {"measurement": "relative viability", "setting": "BX 795 + Navitoclax; first compound 1.265 µM", "value": 0.289}, {"measurement": "relative viability", "setting": "BX 795 + AZD7762; first compound 0.04 µM", "value": 0.138}, {"measurement": "relative viability", "setting": "BX 795 + AZD7762; first compound 0.1265 µM", "value": 0.115}, {"measurement": "relative viability", "setting": "BX 795 + AZD7762; first compound 0.4 µM", "value": 0.148}, {"measurement": "relative viability", "setting": "BX 795 + AZD7762; first compound 1.265 µM", "value": 0.156}]}
